Assays:
[1] = tested on: TGF-α-induced pulmonary fibrosis; experiment: Prevention study: lung histology (trichrome stain); assay type: in vivo, mice
Source text: To examine if ARRY prevented the physiologic effects of TGF-α-induced lung fibrosis, CCSP/TGF-α mice were given ARRY twice daily for 4 weeks while TGF-α was induced. […] More specifically, FIG. 3 illustrates that ARRY prevents TGF-α-mediated alterations in lung mechanics (*=p<0.05 compared to vehicle and ARRY-treated mice). […] Representative samples from four mice per group include low power (4×) and higher power (10×) of pleural fibrosis. […] To induce TGF-α expression, adult transgenic mice (8-12 weeks old) were placed on Doxycycline-containing drinking water (0.5 mg/ml) and food (62.5 mg/kg). Dox-containing water was replaced three times per week. Administration of […]) is a potent, highly specific, allosteric inhibitor of MEK1/2. ARRY is a second generation MEK inhibitor that targets the Ras-Raf-MEK-ERK pathway. ARRY was administered to mice twice daily by gavage, with the first dose at the time of TGF-α induction with doxycycline. Mice were then anesthetized (Isoflurane; Abbott Labs, Chicago, Ill.), and 37.5 mg/kg sterile ARRY142886 was administered by gavage using a 20 gauge feeding catheter (Harvard Apparatus, Holliston, Mass.). Mice were treated with vehicle or ARRY twice daily for up to 4 weeks. Mice were weighed at the beginning of the study and at weekly intervals. […]

[2] = tested on: TGF-α-induced pulmonary fibrosis; experiment: Prevention study: lung proliferation and matrix gene expression (Collagens I, III and Elastin); assay type: in vivo; settings: TGF-α transgenic mice, 4 weeks twice daily, vs vehicle
Procedure: A 4-week study was performed to evaluate the physiologic effects of MEK1/2 kinase inhibition with ARRY on TGF-α-induced pulmonary fibrosis. ARRY was administered to TGF-α transgenic mice; a model for studying pulmonary fibrosis. Endpoints included changes in lung mechanics, lung histology, lung cell proliferation and changes in matrix gene expression (Collagens I, III and Elastin). Differences in the parameters were compared between mice treated with and without ARRY. Mice which over express TGF-α that were treated with 4 weeks of vehicle (i.e. an innocuous or inert medication) developed severe lung fibrosis on histology and lung collagen measurements associated with severe lung restriction on lung mechanics. […] Together, these findings support that MEK1/2 inhibition prevents TGF-α/EGF-mediated pulmonary fibrosis, and is a possible pharmacological strategy to treat pulmonary fibrosis.

[3] = tested on: established TGF-α-induced pulmonary fibrosis; experiment: Rescue study of established fibrosis: lung histology (trichrome stain); assay type: in vivo; settings: CCSP/TGF-α mice, 8 weeks total Dox, treatment during last 4 weeks
Procedure: To determine whether the ERK/MAPK pathway mediates the progression of established fibrosis, CCSP/TGFα mice were treated with ARRY following 4 weeks of Dox, while remaining on Dox for an additional 4 weeks (8 weeks total Dox, 4 week ARRY). Controls included CCSP/TGFα mice treated with vehicle while remaining on Dox an additional 4 weeks (8 weeks total Dox, 4 week vehicle). CCSP/TGFα mice began losing body weight after 4 weeks of Dox. […] See FIG. 6, illustrating that TGF-α was induced with doxycycline for 8 weeks in transgenic mice. ARRY added after 4 weeks of TGF-α expression attenuated weight loss, compared to vehicle-treated mice. […] See FIG. 8, illustrating that ARRY prevents progression of TGF-α induced fibrosis as assessed by lung histology using a trichrome stain. In FIG. 8, a representative sample from 4 mice per group includes low power (4×) and higher power (10×) of pleural fibrosis. […] Lung Histology and Immunohistochemistry: Mice were killed with pentobarbital sodium (65 mg/ml) euthanasia solution (Fort Dodge Animal Health, Fort Dodge, Iowa), and lungs were inflation fixed using 4% paraformaldehyde at 25 cm H2O of pressure, and then allowed to fix overnight at 4° C. Fixed lungs were then washed with phosphate-buffered saline (PBS), dehydrated through a graded series of ethanols, and processed for paraffin embedding. […]

[4] = tested on: TGF-α-induced pulmonary fibrosis; experiment: Prevention study: lung mechanics in TGF-α-induced pulmonary fibrosis; assay type: in vivo; settings: CCSP/TGF-α mice, twice daily for 4 weeks from time of Dox, vs vehicle
Source text: To examine if ARRY prevented the physiologic effects of TGF-α-induced lung fibrosis, CCSP/TGF-α mice were given ARRY twice daily for 4 weeks while TGF-α was induced. […] More specifically, FIG. 3 illustrates that ARRY prevents TGF-α-mediated alterations in lung mechanics (*=p<0.05 compared to vehicle and ARRY-treated mice). […] Representative samples from four mice per group include low power (4×) and higher power (10×) of pleural fibrosis.
To induce TGF-α expression, adult transgenic mice (8-12 weeks old) were placed on Doxycycline-containing drinking water (0.5 mg/ml) and food (62.5 mg/kg). Dox-containing water was replaced three times per week.
Administration of ARRY142886: ARRY142886 (ARRY) is a potent, highly specific, allosteric inhibitor of MEK1/2. ARRY is a second generation MEK inhibitor that targets the Ras-Raf-MEK-ERK pathway. ARRY was administered to mice twice daily by gavage, with the first dose at the time of TGF-α induction with doxycycline. […]
(§1) Pulmonary Mechanics: Lung mechanics were assessed on anesthetized mice using a computerized Flexi Vent system (SCIREQ, Montreal, Canada). […] The ventilation mode was changed to forced oscillatory signal (0.5-19.6 Hz), and respiratory impedance was measured. […]

[5] = tested on: TGF-α-induced cellular proliferation; experiment: Epithelial and mesenchymal proliferation in lung sections of CCSP/TGF-α mice; assay type: in vivo; settings: twice daily by gavage, 4 days of TGF-α induction
Procedure: ARRY was administered to CCSP/TGF-α mice (i.e., mice expressing TGF-α in the epithelium, under control of the doxycycline (Dox)-regulatable Clara cell secretory protein promoter) twice daily by gavage, with the first dose at the time of TGF-α induction with doxycycline. Mice were sacrificed after 4 days of TGF-α induction and ARRY administration.
(§2) Administration of ARRY142886: ARRY142886 (ARRY) is a potent, highly specific, allosteric inhibitor of MEK1/2. ARRY is a second generation MEK inhibitor that targets the Ras-Raf-MEK-ERK pathway. ARRY was administered to mice twice daily by gavage, with the first dose at the time of TGF-α induction with doxycycline. Mice were then anesthetized (Isoflurane; Abbott Labs, Chicago, Ill.), and 37.5 mg/kg sterile ARRY142886 was administered by gavage using a 20 gauge feeding catheter (Harvard Apparatus, Holliston, Mass.). Mice were treated with vehicle or ARRY twice daily for up to 4 weeks. Mice were weighed at the beginning of the study and at weekly intervals.
Lung Histology and Immunohistochemistry: Mice were killed with pentobarbital sodium (65 mg/ml) euthanasia solution (Fort Dodge Animal Health, Fort Dodge, Iowa), and lungs were inflation fixed using 4% paraformaldehyde at 25 cm H2O of pressure, and then allowed to fix overnight at 4° C. […]

[6] = tested on: phosphorylation of ERK1/2; experiment: Western blot of lung homogenates for ERK1/2 phosphorylation in CCSP/TGF-α mice; assay type: in vivo; settings: twice daily by gavage, 4 days of TGF-α induction, vs vehicle
Procedure: Western Blots: Western blot analysis was performed on lung homogenates of CCSP/TGF-α mice treated with 4 days of Dox. Controls were littermate single transgene CCSP/− mice treated with 1 day of Dox. Protein concentrations were assessed using a Bradford Assay and protein loaded on a 4%-20% Tris/glycine SDSPAGE (Invitrogen) and electroblotted to PVDF membranes (0.45 um: Bio-Rad). Blots were blocked with 5% nonfat dry milk in TBST (10 mM Tris, pH 8, 150 mM NaCl, 0.1% Tween 20) and incubated with antibodies against total and phosphorylated Erk (Cell Signaling Technology) and proliferating cell nuclear antigen (PCNA) (Cell Signaling Technology). Blots were washed in TBST and incubated with goat anti-rabbit horse radish peroxidase conjugated (Calbiochem, EMD Biosciences) secondary antibodies and developed on film by chemiluminescence using the ECL Plus system (Amersham Biosciences). Densitometry was performed using the volume integration function on a Phosphorlmager software Imagequant 5.2 (Molecular Dynamics, Sunnyvale, Calif.) after scanning the films.

[7] = tested on: established TGF-α-induced pulmonary fibrosis; experiment: Rescue study of established fibrosis: lung mechanics; assay type: in vivo; settings: CCSP/TGF-α mice, 8 weeks total Dox, treatment during last 4 weeks, vs vehicle
Procedure: (§3) To determine whether the ERK/MAPK pathway mediates the progression of established fibrosis, CCSP/TGFα mice were treated with ARRY following 4 weeks of Dox, while remaining on Dox for an additional 4 weeks (8 weeks total Dox, 4 week ARRY). Controls included CCSP/TGFα mice treated with vehicle while remaining on Dox an additional 4 weeks (8 weeks total Dox, 4 week vehicle). CCSP/TGFα mice began losing body weight after 4 weeks of Dox. […] See FIG. 6, illustrating that TGF-α was induced with doxycycline for 8 weeks in transgenic mice. ARRY added after 4 weeks of TGF-α expression attenuated weight loss, compared to vehicle-treated mice.
See FIG. 7, illustrating that TGF-α was induced with doxycycline for 8 weeks in CCSP/TGF-α transgenic mice. ARRY added after 4 weeks of TGF-α expression prevented progression of alterations in lung mechanics compared to vehicle-treated mice. *=p<0.05 compared to vehicle control CSP/− mice. *#=p<0.05 compared to CCSP/TGF-α mice.
as §1

[8] = Rescue study of established fibrosis: body weight; assay type: in vivo; settings: CCSP/TGFα mice, 8 weeks total Dox, treatment during last 4 weeks, vs vehicle
Procedure: as §3, §2

[9] = tested on: TGF-α-induced pulmonary fibrosis; experiment: Prevention study: total lung collagen (Sircol Collagen Assay); assay type: in vivo; settings: CCSP/TGF-α mice, twice daily for 4 weeks from time of Dox
Source text: To examine if ARRY prevented the physiologic effects of TGF-α-induced lung fibrosis, CCSP/TGF-α mice were given ARRY twice daily for 4 weeks while TGF-α was induced. […] More specifically, FIG. 3 illustrates that ARRY prevents TGF-α-mediated alterations in lung mechanics (*=p<0.05 compared to vehicle and ARRY-treated mice). […] Representative samples from four mice per group include low power (4×) and higher power (10×) of pleural fibrosis. […] To induce TGF-α expression, adult transgenic mice (8-12 weeks old) were placed on Doxycycline-containing drinking water (0.5 mg/ml) and food (62.5 mg/kg). Dox-containing water was replaced three times per week. Administration of […]) is a potent, highly specific, allosteric inhibitor of MEK1/2. ARRY is a second generation MEK inhibitor that targets the Ras-Raf-MEK-ERK pathway. ARRY was administered to mice twice daily by gavage, with the first dose at the time of TGF-α induction with doxycycline. Mice were then anesthetized (Isoflurane; Abbott Labs, Chicago, Ill.), and 37.5 mg/kg sterile ARRY142886 was administered by gavage using a 20 gauge feeding catheter (Harvard Apparatus, Holliston, Mass.). […] Total Lung Collagen: Total lung collagen was determined by measuring total soluble collagen (Sircol Collagen Assay, Biocolor, Ireland). […] The optical density measured with a spectrophotometer (540 nm).

ERK1/2 = settings: previously shown; cited from earlier work
[10] = tested on: TGF-α-induced pulmonary fibrosis; settings: previous study; cited from earlier work

For `Cn1cnc2c(F)c(Nc3ccc(Br)cc3Cl)c(C(=O)NOCCO)cc21` [ARRY142886], the “lung fibrosis on lung histology” value ([1]; CCSP/TGF-α mice, twice daily for 4 weeks from time of Dox, trichrome stain) was “prevents TGF-α-induced pulmonary fibrosis as demonstrated by lung histology”, the “lung fibrosis overall (4-week prevention study)” value ([1]; TGF-α transgenic mice, 4 weeks twice daily, vs vehicle) was “complete prevention of lung fibrosis” and the “lung proliferation and matrix gene expression” value [2] was “significantly reduced lung proliferation and matrix gene expression”. The “pulmonary fibrosis measured by lung matrix expression on lung histology” value [3] was “reduced pulmonary fibrosis”, the “lung mechanics (airway resistance, airway and tissue elastance, compliance)” value [4] was “no changes in lung mechanics” and the “lung mechanics (airway resistance, airway and tissue elastance, compliance)” value ([4]; listed as ARRY) was “prevented TGFα-mediated increases in airway resistance, and airway and tissue elastance and decreases in compliance”. For the same compound, the “TGF-α-induced cellular proliferation (epithelial and mesenchymal) in lung sections” value [5] was “dose-dependent inhibition of TGF-α-induced cellular proliferation”, the “phosphorylation of ERK1/2 in lung homogenates” value [6] was “inhibited increased phosphorylation of ERK1/2” and the “lung mechanics (compliance, airway resistance, elastance)” value [7] was “improved lung mechanics”. The body weight loss [8] was “Body weight loss was attenuated” and the total lung collagen [9] was “prevents TGF-α-induced fibrosis as assessed by total lung collagen”.

For `C=CCN(/C=C1/C(=O)O[C@H](COC)[C@@]2(C)C1=C(O)C(=O)C1=C2[C@H](OC(C)=O)C[C@]2(C)C(=O)CC[C@@H]12)CC=C` [PX-866], the “phosphorylation of ERK1/2 in treated TGF-α mice” value (ERK1/2) is listed as “remain phosphorylated”.

For `C#Cc1cccc(Nc2ncnc3cc(OCCOC)c(OCCOC)cc23)c1` [erlotinib], the “fibrosis in the CCSP/TGF-α transgenic model” value [10] is listed as “prevented fibrosis”.

For `COc1cc2ncnc(Nc3ccc(F)c(Cl)c3)c2cc1OCCCN1CCOCC1` [gefitinib], the “fibrosis in the CCSP/TGF-α transgenic model” value [10] is listed as “prevented fibrosis”.

Reference: US20120095060A1, “METHODS AND COMPOSITIONS OF MITOGEN-ACTIVATED PROTEIN KINASE (MAPK) PATHWAY INHIBITORS FOR TREATING PULMONARY FIBROSIS” (priority 2010, published 2012)
